From PubChem BioAssay (NCI)
Where “and” joins values, the source holds several entries; their conditions need not be identical. Equal values may be shown once.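 Five concentrations, 48 hours, 96-well plates. Abbreviation: GI50, concentration required for 50% inhibition of growth. TGI: concentration producing complete growth inhibition.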

Legend:
Assay in all cases: inhibition of tumour cell growth, NCI panel, 48 h
SF-268 CNS = system: SF-268 CNS
SR leukemia = system: SR leukemia
HCT-15 colon = system: HCT-15 colon
EKVX NSCLC = system: EKVX NSCLC
MALME-3M melanoma = system: MALME-3M melanoma
A549 NSCLC = system: A549 NSCLC
OVCAR-4 ovarian = system: OVCAR-4 ovarian
OVCAR-3 ovarian = system: OVCAR-3 ovarian
T-47D breast = system: T-47D breast
MDA-MB-231 breast = system: MDA-MB-231 breast

Compound	TGI (SF-268 CNS) [µM]	TGI (SR leukemia) [µM]	TGI (HCT-15 colon) [µM]	TGI (EKVX NSCLC) [µM]	TGI (MALME-3M melanoma) [µM]	TGI (A549 NSCLC) [µM]	TGI (OVCAR-4 ovarian) [µM]	TGI (OVCAR-3 ovarian)	GI50 (SF-268 CNS) [µM]	GI50 (HCT-15 colon) [µM]	GI50 (EKVX NSCLC) [µM]	GI50 (MALME-3M melanoma) [µM]	GI50 (A549 NSCLC) [µM]	GI50 (OVCAR-4 ovarian) [µM]	GI50 (T-47D breast) [µM]	TGI (T-47D breast)	GI50 (OVCAR-3 ovarian) [µM]	GI50 (MDA-MB-231 breast) [µM]	TGI (MDA-MB-231 breast)
CN=C(N)NC	> 100	> 100	> 100	> 100	> 100	> 100	> 100	> 100 µM											
CC1(C)Oc2ccccc2[N+]([O-])=C1c1ccccc1	> 100	> 100	> 100		> 100	> 100	> 100	> 100 µM											
CCOc1ccc(N=Cc2ccc3ccccc3n2)cc1	> 100		> 100	> 100	> 100	> 100	> 100	> 100 µM											
CCCCCC(=C/c1ccccc1)/C=N/N=C(N)N	2.99		5	19.1	3.12	3.23	2.84	2.56 µM	1.45	1.99	4.03	1.51	1.73	1.46	1.65	3.62 µM	1.27		
O=C1c2ccccc2-c2c1c1ccc([N+](=O)[O-])cc1c(=O)n2CCCn1ccnc1	15.1		3.15	> 21.8	1.97	21.9	13.2	2.12 µM		1.06	6.16	0.148	3.17	0.943		> 33.3 µM	0.334	0.15	0.408 µM
COC(=O)C1=C(O)c2cc3c(cc2[C@H](c2cc(OC)c(OC)c(OC)c2)C1)OCO3	> 100	> 100	> 100		> 100	> 100	> 100	55.7 µM											
O=C(COC(=O)c1cccc2c(=O)c3ccccc3[nH]c12)Nc1ccc(S(=O)(=O)Nc2ncccn2)cc1	> 100	91	> 100	> 100	> 100	> 100	> 100	51.7 µM											
CN[C@H]1CC[C@]23C[C@]24CC[C@]2(C)[C@@H]([C@H](C)N(C)C)CC[C@@]2(C)[C@@H]4CC[C@H]3C1(C)C	31.5		25.8	37.9	32.6	39.2	53.7	33.6 µM								35.2 µM			38.2 µM
N/C(=N\N=C\c1ccc(O)c(O)c1)NO	> 100	> 100	> 100	> 100	> 100	> 100	> 100	> 100 µM											
COc1ccc2c(c1OC)C(C=C(c1ccccc1)c1ccccc1)CN(C)C2 (centres undefined)	72.2		33	> 100	38.1	88.2	> 100	59.9 µM											
CC1=CC2=C(C#N)C(=O)OC2(C)C(c2ccccc2)C1 (centres undefined)	> 100		> 100	> 100	> 100	> 100	> 100	> 100 µM											> 100 µM
COc1cc2ccc3c4cc(OC)c(OC(C)C)cc4c[n+](C)c3c2cc1OC	> 100	> 100	> 100	> 100	> 100	> 100	> 100	> 100 µM											
COc1ccc(C[C@H]2NC[C@H](O)[C@H]2OC(C)=O)cc1	1.03			0.344	0.708	3.48	0.194	0.335 µM					0.0413			0.754 µM			0.079 µM
Cn1cc2ccccc2c1-c1nc(F)nc(Nc2ccc(N)cc2)n1	56.3	72.4	26.3	60.4	39.2	65.3	64.3	48.3 µM											
CC(C)=CCC/C(C)=C/CC/C(C)=C/C1CCC(=O)C1(C)C (centres undefined)	33.6	40.8	28.9	42.4	37.5	77.6	66	32.5 µM											
[N-]=[N+]=NC1C2CC3CC(C2)CC1C3 (centres undefined)		> 100		> 100	> 100	> 100	> 100	> 100 µM											
COC(=O)c1ccc(/C=C/S(=O)(=O)c2ccccc2)cc1	> 100		> 100	> 100	> 100	> 100	> 100	> 100 µM											
CCN(CC)/[N+]([O-])=N/OCC(C)O (centres undefined)	> 100	> 100	> 100	> 100		> 100		> 100 µM											
CCCCCCC(O)C(O)CCC(O)C1CCC(CCCCC(O)CC2=CC(C)OC2=O)O1 (centres undefined)	48.8		80.4	12	33.8	35.3	39.6	5.22 µM and 28.7 µM	20.3	19.2	0.291		10.6		4.99	40.7 µM	13.7	18.5	6.4 µM and 46.9 µM
CCC1(N)C(=O)OCc2c1cc1n(c2=O)Cc2cc3ccccc3nc2-1 (centres undefined)	> 100		> 100	> 100	> 100	> 100	> 100	42.6 µM and > 100 µM		19.7	20.7	24.5	5.05	38.2	5.78	> 100 µM and 18.4 µM	17.2	49.3	> 100 µM
CC(=O)Oc1cc(Cl)c(OC(C)=O)c2c(OC(C)=O)c(C)c(O[Si](C)(C)C(C)(C)C)cc12	26.2	19.1	20.3	33.9			26.2	29.3 µM											
Cc1ccc(-c2cc(=O)c3cc(C)c(C)c(C(=O)O)c3o2)cc1[N+](=O)[O-]	> 100		> 100	> 100	> 100	> 100	> 100	> 100 µM											
